Assay results published in patent US20240246918A1, “COMPOUNDS AND COMPOSITIONS AS EIF4E INHIBITORS AND THE USES THEREOF” (Ribometrix, Inc., priority 2022, published 2024).
Read-outs that look alike come from different tables or passages of the source.

Tests used:
human eIF4E protein = molecular target: T1, human eIF4E protein (Homo sapiens, UniProt P06730); assay: Biochemical competitive binding assay (TR-FRET competition, EDA-m7GDP-ATTO-647N probe); details: read-out: hEIF4E TR-FRET IC50
T1 construct: purchased Novus NBP-45314
In short: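 His-tagged human eIF4E (4 nM) was preincubated with Eu-anti-His antibody (2.5 nM) and added to compound (11-point, 4-fold dilutions) for 15 min. Then 5 nM EDA-m7GDP-ATTO-647N was added for 15 min, in HEPES pH 7.5, 100 mM KCl. The 665/620 TR-FRET ratio was normalized to controls, and IC50 was taken from 4-parameter fits.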

[1] = tested on: cap-dependent translation in Flp-In-293 reporter cells; assay: Cellular cap-dependent translation inhibition assay (dual luciferase assay, DLA; Fluc/Rluc ratio, 24 hours); format: cell-based; details: dual luciferase assay, Flp-In-293 reporter cells, 24 hours, Fluc/Rluc ratio, read-out: DLA 205 IC50
[2] = tested on: cyclin D1 protein levels in COLO 205 cells; assay: Cyclin D1 cellular inhibition assay (HTRF, 6 hours); format: cell-based; details: 6 hours of compound treatment, Cyclin D1 protein levels by HTRF, read-out: COLO 205 6 h Cyclin D1 TR-FRET IC50
In short: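 COLO 205 cells in RPMI-1640 with 10% FBS treated 6 h with 11-point compound dilutions at 1% DMSO final. Lysates assayed for cyclin D1 by HTRF. Signal normalized to DMSO and maximum-inhibition controls, with IC50 from 4-parameter fit.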

[3] = tested on: COLO 205 colorectal tumor cells; assay: Tumor cell viability inhibition assay (CellTiter-Glo 2.0, 72 hours); format: cell-based; details: COLO 205 cell viability
In short: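 COLO 205 cells (1500/well, RPMI-1640 + 10% FBS) exposed for 72 h to an 11-point, 4-fold dilution series; cellular ATP read by CellTiter-Glo 2.0 luminescence. Data normalized to DMSO and maximum-inhibition controls; IC50 from 4-parameter curve fit.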

T1 sequence (P06730 whole entry): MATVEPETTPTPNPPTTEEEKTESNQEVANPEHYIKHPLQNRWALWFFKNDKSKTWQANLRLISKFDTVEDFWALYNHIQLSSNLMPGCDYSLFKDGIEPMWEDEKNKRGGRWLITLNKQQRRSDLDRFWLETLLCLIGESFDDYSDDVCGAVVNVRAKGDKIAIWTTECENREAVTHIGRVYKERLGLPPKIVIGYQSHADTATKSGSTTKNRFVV

Row | IC50 (human eIF4E protein) [µM] | IC50 ([2]; Homo sapiens, COLO 205, 6 h) [µM] | IC50 ([3]; Homo sapiens, COLO 205, 72 h) [µM] | IC50 [2] [µM] | IC50 [3] [µM] | SMILES | IC50 ([1]; Homo sapiens, Flp-In-293, 24 h) [µM] | IC50 [1] [µM]
1 | < 0.1 | < 5 | < 5 | – | – | Cc1cc(-c2cc(Cl)ccc2OCCn2c(C)nc3c(c2=O)CC(N(C)CC2(C)COC2)CC3)c2scc(C(=O)O)c2n1 (stereo not drawn) [Compound 18] | < 1 | –
2 | < 0.1 | < 5 | < 5 | – | – | Cc1cc(-c2cc(Cl)ccc2OCCn2c(C)nc3c(c2=O)CC(N2CCCCC2)CC3)c2scc(C(=O)O)c2n1 (stereo not drawn) [Compound 11] | < 1 | –
3 | < 0.1 | < 5 | < 5 | – | – | Cc1cc(-c2cc(Cl)ccc2OCCn2c(C)nc3c(c2=O)CC(N(C)C)CC3)c2scc(C(=O)O)c2n1 (stereo not drawn) [Compound 3, 7-[5-chloranyl-2-[2-[6-[di(methyl)amino]-2-methyl-4-oxidanylidene-5,6,7,8-tetrahydroquinazolin-3-yl]ethoxy]phenyl]-5-methyl-thieno[3,2-b]pyridine-3-carboxylic acid; 2,2,2-tris(fluorenyl)acetic acid] | < 1 | –
4 | < 0.1 | – | – | 5 to 20 | < 5 | Cc1cc(-c2cc(Cl)ccc2OCCn2c(C)nc3c(c2=O)CC(N(CC2CC(F)(F)C2)C2CC2)CC3)c2scc(C(=O)NS(C)(=O)=O)c2n1 (single isomer, unassigned) [Compound 261] | – | < 1
5 | < 0.1 | < 5 | < 5 | – | – | Cc1cc(-c2cc(Cl)ccc2OCCn2c(C)nc3c(c2=O)CC(N2CCCCC2)CC3)c2scc(C(=O)NS(C)(=O)=O)c2n1 (stereo not drawn) [Compound 31] | < 1 | –
6 | < 0.1 | – | – | < 5 | < 5 | Cc1cc(-c2cc(Cl)ccc2OCCn2c(C)nc3c(c2=O)CC(N(CC2CC(F)(F)C2)C2CC2)CC3)c2scc(C(=O)O)c2n1 (single isomer, unassigned) [Compound 263] | – | < 1
7 | < 0.1 | < 5 | – | – | – | Cc1cc(-c2cc(Cl)ccc2OCCn2c(C)nc3c(c2=O)CC(N2CC4COCC4C2)CC3)c2scc(C(=O)O)c2n1 (single isomer, unassigned) [Compound 70] | – | < 1
8 | < 0.1 | < 5 | < 5 | – | – | Cc1nc2c(c(=O)n1CC#Cc1ccc(Cl)cc1-c1ccnc3c(C(=O)O)csc13)C[C@H](N1CC[C@@H](F)C1)CC2 (single isomer, unassigned) [Compound 326] | < 1 | –
9 | < 0.1 | < 5 | < 5 | – | – | Cc1cc(-c2cc(Cl)ccc2OCCn2c(C)nc3c(c2=O)C[C@H](N2CC[C@@H](F)C2)CC3)c2scc(C(=O)O)c2n1 (single isomer, unassigned) [Compound 328] | < 1 | –
10 | 0.1 to 0.5 | > 20 | > 20 | – | – | Cc1sc2c(-c3cc(Cl)ccc3OCCn3c(C)nc4c(c3=O)CC(N(C)C3CC3)CC4)cn(C)c(=O)c2c1C(=O)O (single isomer, unassigned) [Compound 244] | > 5 | –
11 | < 0.1 | < 5 | < 5 | – | – | CO[C@@H]1CCN([C@@H]2CCc3nc(C)n(CCOc4ccc(Cl)cc4-c4cc(C)nc5c(C(=O)O)csc45)c(=O)c3C2)C1 (single isomer, unassigned) [Compound 42] | < 1 | –
12 | < 0.1 | < 5 | < 5 | – | – | Cc1cc(-c2cc(Cl)ccc2OCCn2c(C)nc3c(c2=O)CC(N(C)C2CC2)CC3)c2scc(C(=O)NS(C)(=O)=O)c2n1 (stereo not drawn) [Compound 51] | < 1 | –
13 | < 0.1 | – | – | > 20 | 5 to 20 | Cc1cc(-c2cc(Cl)ccc2OCCn2c(C)nc3c(c2=O)CC(N(C)C)CC3)c2scc(C(=O)O)c2n1 (single isomer, unassigned) [Compound 14] | – | 1 to 5
14 | < 0.1 | – | – | 5 to 20 | 5 to 20 | Cc1cc(-c2cc(Cl)ccc2OCCn2c(C)nc3c(c2=O)CC(N(C)C2(C4CCC4)CC2)CC3)c2scc(C(=O)O)c2n1 (single isomer, unassigned) [Compound 243] | – | 1 to 5
15 | < 0.1 | – | – | 5 to 20 | 5 to 20 | Cc1cc(-c2cc(Cl)ccc2OCCn2c(C)nc3c(c2=O)CC(N2CCCCC2)CC3)c2scc(C(=O)NS(C)(=O)=O)c2n1 (single isomer, unassigned) [Compound 245] | – | < 1
16 | < 0.1 | < 5 | < 5 | – | – | Cc1cc(-c2cc(Cl)ccc2OCCn2c(C)nc3c(c2=O)CC(N(CC2CC(F)(F)C2)C2CC2)CC3)c2scc(C(=O)NS(C)(=O)=O)c2n1 (single isomer, unassigned) [Compound 260] | < 1 | –
17 | < 0.1 | – | < 5 | < 5 | – | Cc1cc(-c2cc(Cl)ccc2OCCn2c(C)nc3c(c2=O)CC(N(C)C)CC3)c2scc(C(=O)O)c2n1 (single isomer, unassigned) [Compound 13] | < 1 | –
18 | < 0.1 | < 5 | < 5 | – | – | Cc1cc(-c2cc(Cl)ccc2OCCn2c(C)nc3c(c2=O)CC(N2CCCCC2)CC3)c2scc(C(=O)NS(C)(=O)=O)c2n1 (single isomer, unassigned) [Compound 241] | < 1 | –
19 | < 0.1 | < 5 | < 5 | – | – | Cc1cc(-c2cc(Cl)ccc2OCCn2c(C)nc3c(c2=O)CC(N(C)C2(C4CCC4)CC2)CC3)c2scc(C(=O)O)c2n1 (single isomer, unassigned) [Compound 242] | < 1 | –
20 | < 0.1 | 5 to 20 | 5 to 20 | – | – | Cc1cc(-c2cc(Cl)ccc2OCCn2c(C)nc3c(c2=O)CC(N(CC2CC(F)(F)C2)C2CC2)CC3)c2scc(C(=O)O)c2n1 (single isomer, unassigned) [Compound 257] | < 1 | –
21 | < 0.1 | 5 to 20 | 5 to 20 | – | – | Cc1nc2c(c(=O)n1CCOc1ccc(Cl)cc1-c1cccc(C(=O)O)c1)CC(N(C)C)CC2 (stereo not drawn) [Compound 1, 3-[5-chloranyl-2-[2-[6-[di(methyl)amino]-2-methyl-4-oxidanylidene-5,6,7,8-tetrahydroquinazolin-3-yl]ethoxy]phenyl]benzoic acid] | < 1 | –
22 | < 0.1 | < 5 | < 5 | – | – | Cc1cc(-c2cc(Cl)ccc2OCCn2c(C)nc3c(c2=O)CC(N(C)C2CC2)CC3)c2scc(C(=O)O)c2n1 (stereo not drawn) [Compound 46] | < 1 | –
23 | < 0.1 | < 5 | < 5 | – | – | Cc1cc(-c2cc(Cl)ccc2OCCn2c(C)nc3c(c2=O)C[C@@H](N2C[C@H]4CCC(F)(F)[C@H]4C2)CC3)c2scc(C(=O)O)c2n1 (single isomer, unassigned) [Compound 168] | – | –
